The source made the active and inactive calls. The calls are words filed in the database; no cut-off is given here.
Experiments:
Type in all cases: functional
[1] = test system: Rattus norvegicus; experiment: Antipyretic activity in Wistar Rattus norvegicus (rat) assessed as decrease in Brewer's yeast solution-induced hyperthermia at 50 mg/kg, po measured after 1 hr (reference value: 37 +/- 3.55 degC)
[2] = test system: Rattus norvegicus; experiment: Effect on TBARS level in Wistar Rattus norvegicus (rat) serum at 50 mg/kg, po qd after 10 days (reference value: 0.82 +/- 0.073 nmol/ml)
[3] = test system: Rattus norvegicus; experiment: Effect on SGOT level in Wistar Rattus norvegicus (rat) at 50 mg/kg, po qd after 10 days (reference value: 145.50 +/- 13.86 U/I)
[4] = test system: Rattus norvegicus; experiment: Anti-inflammatory activity in Wistar Rattus norvegicus (rat) assessed as inhibition of carrageenan-induced paw edema at 50 mg/kg, po administered 30 min prior to carrageenan challenge measured at 90 min relative to untreated control
[5] = test system: Rattus norvegicus; experiment: Antipyretic activity in Wistar Rattus norvegicus (rat) assessed as decrease in Brewer's yeast solution-induced hyperthermia at 150 mg/kg, po measured after 2 hr (reference value: 37 +/- 1.7 degC)
[6] = test system: Rattus norvegicus; experiment: Anti-inflammatory activity in Wistar Rattus norvegicus (rat) assessed as inhibition of carrageenan-induced paw edema at 150 mg/kg, po administered 30 min prior to carrageenan challenge measured at 120 min relative to untreated control
[7] = test system: Rattus norvegicus; experiment: Effect on GST level in Wistar Rattus norvegicus (rat) liver measured CDNB conjugated per min per mg of protein at 150 mg/kg, po after 10 days (reference value: 0.86 +/- 0.08 mmol)
[8] = test system: Rattus norvegicus; experiment: Effect on gamma-glutamyl transferase level in Wistar Rattus norvegicus (rat) serum at 50 mg/kg, po qd after 10 days (reference value: 0.57 +/- 0.04 U/I)
[9] = test system: Rattus norvegicus; experiment: Effect on TBARS level in Wistar Rattus norvegicus (rat) serum at 150 mg/kg, po qd after 10 days (reference value: 0.82 +/- 0.073 nmol/ml)
[10] = test system: Rattus norvegicus; experiment: Anti-inflammatory activity in Wistar Rattus norvegicus (rat) assessed as inhibition of carrageenan-induced paw edema at 150 mg/kg, po administered 30 min prior to carrageenan challenge measured at 180 min relative to untreated control
[11] = test system: Rattus norvegicus; experiment: Anti-inflammatory activity in Wistar Rattus norvegicus (rat) assessed as inhibition of carrageenan-induced paw edema at 150 mg/kg, po administered 30 min prior to carrageenan challenge measured at 60 min relative to untreated control
[12] = test system: Rattus norvegicus; experiment: Antipyretic activity in Wistar Rattus norvegicus (rat) assessed as decrease in Brewer's yeast solution-induced hyperthermia at 100 mg/kg, po measured after 2 hr (reference value: 37 +/- 1.7 degC)
[13] = test system: Rattus norvegicus; experiment: Antipyretic activity in Wistar Rattus norvegicus (rat) assessed as decrease in Brewer's yeast solution-induced hyperthermia at 150 mg/kg, po measured after 3 hr (reference value: 36.8 +/- 1.9 degC)
[14] = test system: Rattus norvegicus; experiment: Antipyretic activity in Wistar Rattus norvegicus (rat) assessed as decrease in Brewer's yeast solution-induced hyperthermia at 100 mg/kg, po measured after 1 hr (reference value: 37 +/- 3.55 degC)
[15] = test system: Rattus norvegicus; experiment: Antipyretic activity in Wistar Rattus norvegicus (rat) assessed as decrease in Brewer's yeast solution-induced hyperthermia at 50 mg/kg, po measured after 3 hr (reference value: 36.8 +/- 1.9 degC)
[16] = test system: Rattus norvegicus; experiment: Anti-inflammatory activity in Wistar Rattus norvegicus (rat) assessed as inhibition of carrageenan-induced paw edema at 100 mg/kg, po administered 30 min prior to carrageenan challenge measured at 120 min relative to untreated control
[17] = test system: Rattus norvegicus; experiment: Effect on SGOT level in Wistar Rattus norvegicus (rat) at 100 mg/kg, po qd after 10 days (reference value: 145.50 +/- 13.86 U/I)
[18] = test system: Rattus norvegicus; experiment: Effect on GSH level in Wistar Rattus norvegicus (rat) liver measured per mg of protein at 100 mg/kg, po after 10 days (reference value: 1.84 +/- 0.092 mg)
[19] = test system: Rattus norvegicus; experiment: Effect on SGPT level in Wistar Rattus norvegicus (rat) at 50 mg/kg, po qd after 10 days (reference value: 38.77 +/- 4.25 U/I)
[20] = test system: Rattus norvegicus; experiment: Effect on glutathione reductase level in Wistar Rattus norvegicus (rat) liver measured NADPH oxidized per min per mg of protein at 100 mg/kg, po after 10 days (reference value: 4.19 +/ 0.42 nmol)
[21] = test system: Rattus norvegicus; experiment: Antipyretic activity in Wistar Rattus norvegicus (rat) assessed as decrease in Brewer's yeast solution-induced hyperthermia at 50 mg/kg, po measured after 2 hr (reference value: 37 +/- 1.7 degC)
[22] = test system: Rattus norvegicus; experiment: Effect on TBARS level in Wistar Rattus norvegicus (rat) serum at 100 mg/kg, po qd after 10 days (reference value: 0.82 +/- 0.073 nmol/ml)
[23] = test system: Rattus norvegicus; experiment: Effect on GST level in Wistar Rattus norvegicus (rat) liver measured CDNB conjugated per min per mg of protein at 50 mg/kg, po after 10 days (reference value: 0.86 +/- 0.08 mmol)
[24] = test system: Rattus norvegicus; experiment: Effect on ALP level in Wistar Rattus norvegicus (rat) serum at 50 mg/kg, po qd after 10 days (reference value: 39.5 +/- 3.86 U/I)
[25] = test system: Rattus norvegicus; experiment: Effect on SGOT level in Wistar Rattus norvegicus (rat) at 150 mg/kg, po qd after 10 days (reference value: 145.50 +/- 13.86 U/I)
[26] = test system: Rattus norvegicus; experiment: Anti-inflammatory activity in Wistar Rattus norvegicus (rat) assessed as inhibition of carrageenan-induced paw edema at 100 mg/kg, po administered 30 min prior to carrageenan challenge measured at 30 min post carrageenan challenge relative to untreated control
[27] = test system: Rattus norvegicus; experiment: Effect on glutathione peroxidase level in Wistar Rattus norvegicus (rat) liver measured GSH oxidized per min per mg of protein at 150 mg/kg, po after 10 days (reference value: 47.47 +/- 3.86 mmol)
[28] = test system: Rattus norvegicus; experiment: Effect on SGPT level in Wistar Rattus norvegicus (rat) at 100 mg/kg, po qd after 10 days (reference value: 38.77 +/- 4.25 U/I)
[29] = test system: Rattus norvegicus; experiment: Effect on glutathione peroxidase level in Wistar Rattus norvegicus (rat) liver measured GSH oxidized per min per mg of protein at 100 mg/kg, po after 10 days (reference value: 47.47 +/- 3.86 mmol)
[30] = test system: Radical scavenging activity; experiment: Antioxidant activity assessed as DPPH free radical scavenging activity at 6 mg/ml after 5 to 60 min by spectrophotometric analysis
[31] = Antioxidant activity assessed as reduction of Fe3+ to Fe2+ at 20 to 120 ug/ml after 30 min by spectrophotometric analysis
[32] = test system: Rattus norvegicus; experiment: Effect on glutathione reductase level in Wistar Rattus norvegicus (rat) liver measured NADPH oxidized per min per mg of protein at 50 mg/kg, po after 10 days (reference value: 4.19 +/ 0.42 nmol)

Row | SMILES | T [1] | Activity [2] | Activity [3] | inhibition in vivo at 50 mg/kg [4] | T [5] | inhibition in vivo at 150 mg/kg [6] | Activity [7] | Activity [8] | Activity [9] | inhibition in vivo at 150 mg/kg [10] | inhibition in vivo at 150 mg/kg [11] | T [12] | T [13] | T [14] | T [15] | inhibition in vivo at 100 mg/kg [16] | Activity [17] | Activity [18] | Activity [19] | Activity [20] | other results
1 | COC(=O)c1ccccc1NC(=O)/C=C/c1ccc(O)c(O)c1 | 37.7 °C | 0.77 nmol/mL | 135.62 U/L | 53.1% | 36.5 °C | 76% | 1.97 mmol | 0.53 U/L | 0.7 nmol/mL | 78.9% | 52.7% | 36.7 °C | 36.5 °C | 37.2 °C | 36.8 °C | 64.3% | 133.79 U/L | 2.39 mg | 42.47 U/L | 5.59 nmol | T [21]: 37 °C; Activity [22]: 0.75 nmol/mL; Activity [23]: 1.3 mmol; Activity [24]: 38.3 U/L; Activity [25]: 129.32 U/L; inhibition in vivo at 100 mg/kg [26]: 26.8%; Activity [27]: 57.89 mmol; Activity [28]: 43.21 U/L; Activity [29]: 53.74 mmol; Activity [30]: Active; Activity [31]: Active; Activity [32]: 4.85 nmol
2 | O=c1c2ccccc2nc2n1NC(c1ccc(O)c(O)c1)C2 (centres undefined) | 37.6 °C | 0.82 nmol/mL | 139.53 U/L | 39.5% | 37 °C | 58.2% | 1.34 mmol | 0.55 U/L | 0.8 nmol/mL | 54.6% | 34.2% | 36 °C | 36.6 °C | 37.8 °C | 36.1 °C | 54.7% | 136.34 U/L | 1.85 mg | 41.97 U/L | 4.25 nmol | T [21]: 36.5 °C; Activity [22]: 0.83 nmol/mL; Activity [23]: 0.97 mmol; Activity [24]: 40.77 U/L; Activity [25]: 134.55 U/L; inhibition in vivo at 100 mg/kg [26]: 4.58%; Activity [27]: 53.45 mmol; Activity [28]: 36.15 U/L; Activity [29]: 51.38 mmol; Activity [30]: Active; Activity [31]: Active; Activity [32]: 4.33 nmol
